Data taken from patent US12637415B2, “Lyophilized composition comprising (s)-isopropyl 2-((s)-2-acetamido-3-(1H-indol-3-yl)propanamido)-6-diazo-5-oxohexanoate for intravenous administration and the use thereof” (DRACEN PHARMACEUTICALS, INC., priority 2019, dated 2026).

How the values were obtained:
Type in all cases: physicochemical
[1] = Study Number 1: in-use stability diluted in normal saline in PVC containers (HPLC purity and concentration, 24 hour); settings: for Time stable at room temperature: 0.012-0.3 mg/mL diluted in normal saline in PVC containers
Experimental: The purity and concentration of Compound 1 as measured by HPLC were determined during a 24 hour test period while the drug product was held in its diluted state in normal saline in a polyvinyl chloride (PVC) clinical containers over a range of concentrations in 500 mL bags. The parameters of the study were: • Compound 1 dose: 6 mg and 150 mg in 500 mL • Concentration range: 0.012-0.3 mg/mL Compound 1 • Container size: 500 mL • Diluent: 0.9% normal saline, USP • Stability time points: 0, 4, 8, 24 hours • Storage condition: room temperature (15-25° C.) • Container composition: polyvinyl chloride • Light conditions: ambient light vs amber IV bag covers to limit UV exposure • Reconstitution: 80% (v/v) ethanol for reconstitution of the lyophilate, followed by dilution into normal saline.

[2] = Study Number 2: in-use stability in PVC and polyolefin containers, 4 hour hold plus 1 hour infusion (HPLC)
Experimental: (§1) The purity and concentration of Compound 1 as measured by HPLC were determined during a 5 hour test period while the drug product was held in polyvinyl chloride (PVC) and non-PVC, non-DEHP (polyolefin) clinical containers over a range of concentrations in 500 mL containers. Admixed containers were delivered with an […] infusion set by holding the infusion bag with diluted test article for 4 hours prior to a 1 hour infusion to assess in use stability over a total of 5 hours to mimic clinical practice. The parameters of the study were: • Compound 1 dose: 6 mg and 150 mg in 500 mL • Concentration range: 0.012-0.3 mg/mL Compound 1 • Container size: 500 mL • Diluent: 0.9% normal saline, USP • Stability time points: 0 hours, 4 hours (pre-infusion), 5 hours (post-1 hour infusion) • Storage condition: room temperature (15-25° C.) • Container composition: polyvinyl chloride and non-PVC, non-DEHP (polyolefin) • Light conditions: ambient light vs amber IV bag covers to limit UV exposure • Reconstitution: 80% (v/v) ethanol for reconstitution of the lyophilate, followed by dilution into normal saline.

[3] = Study Number 3: in-use stability in polyolefin containers after 50% ethanol reconstitution, 4 hour hold plus 1 hour infusion (HPLC)
Experimental: as §1, with “a” for “polyvinyl chloride (PVC) and non-PVC,”, “120” for “150”, “0.012-0.24” for “0.012-0.3”, “composition:” for “composition: polyvinyl chloride and non-PVC,”, “conditions:” for “conditions: ambient light vs”, “50%” for “80%”

[4] = Holding of compounded sterile filtered pre-lyophilization solutions (precipitation); settings: for Precipitation in held pre-lyophilization solution: 24 h; for Precipitation post filtration: vials stored at 17° C., 20° C., 22° C., or 25° C. for 24 h
Experimental: Experiments were conducted to study the compounding and holding of pre-lyophilization solutions comprising Compound 1.
Vials of the compounded sterile filtered pre-lyophilization solutions were held at 17° C., 20° C., 22° C., and 25° C.

[5] = Compounding (dissolution) of pre-lyophilization solutions comprising Compound 1
Experimental: Third, Compound 1 was dissolved in the solution at 30° C. After dissolution, the solution was cooled to room temperature (20-22° C.). Experiments were conducted to study the compounding and holding of pre-lyophilization solutions comprising Compound 1.

With `CC(=O)N[C@@H](Cc1c[nH]c2ccccc12)C(=O)N[C@@H](CCC(=O)C=[N+]=[N-])C(=O)OC(C)C` [Compound 1, (S)-isopropyl 2-((S)-2-acetamido-3-(1H-indol-3-yl)propanamido)-6-diazo-5-oxohexanoate] as the compound, how does the “Appearance of diluted samples” value ([1]; 0.012-0.3 mg/mL in normal saline, PVC, room temperature, through 24 hours) read?
The value was “remained clear”.

What about the “Time stable at room temperature” value ([1]; amber covered shroud protected from light) of the same compound?
Its value is “up to 24 hours”.

And the “Impurity testing (HPLC)” value ([1]; ambient light vs amber cover, 0-24 hours, PVC container)?
Its value is “greater impurities under ambient light with an increase in impurities observed over the course of the experiment”.

What about the “Time stable at room temperature” value ([1]; ambient light) of the same compound?
The value was “up to 8 hours”.

And the “Appearance of diluted samples” value ([2]; 0.012-0.3 mg/mL in normal saline, PVC and polyolefin, room temperature, through 5 hours)?
Its value is “remained clear”.

And the “Impurity testing (HPLC)” value ([2]; ambient light vs amber cover, 4 hours and 1 hour post infusion compared to baseline)?
Its value is “greater impurities under ambient light with an increase in impurities observed over the course of the experiment”.

And the “Time stable at room temperature” value ([2]; followed by a 1 hour infusion, amber shroud, polyolefin containers, low-sorb tubing, 0.012-0.3 mg/mL in normal saline)?
Its value is “up to 4 hours”.

What about the “Appearance of diluted samples” value ([3]; 0.012-0.24 mg/mL in normal saline, polyolefin, room temperature, through 5 hours, 50% ethanol reconstitution) of the same compound?
Its value is “remained clear”.

And the “Impurity testing (HPLC)” value ([3]; all time points (0, 4, 5 hours), polyolefin, amber cover)?
The value was “no impurities at any time point”.

And the “Time stable at room temperature” value ([3]; followed by a 1 hour infusion, amber shroud, polyolefin containers, PVC or low-sorb tubing, 0.012-0.24 mg/mL in normal saline)?
Its value is “up to 4 hours”.

What about the “Precipitation in held pre-lyophilization solution” value ([4]; 17° C., 10 mg/mL) of the same compound?
Its value is “remain free of precipitation”.

And the “Precipitation in held pre-lyophilization solution” value ([4]; 17° C., 12.5 mg/mL)?
The value was “remain free of precipitation”.

What about the “Time to precipitation of pre-lyophilization solution” value ([4]; 17° C., 15 mg/mL) of the same compound?
Its value is “occurs within 1 h at 15 mg/mL”.

What about the “Precipitation post filtration (observed or not)” value ([4]; Exp 4: 15 mg/mL, sterile filtered, vial held at 17° C., at 1 h) of the same compound?
Its value is “observed in vial held”.

And the Precipitation post filtration ([4]; Exp 5: 12.5 mg/mL)?
Its Precipitation post filtration is “No precipitation”.

And the Precipitation post filtration ([4]; Exp 6: 10 mg/mL)?
Its Precipitation post filtration is “No precipitation”.

And the Dissolution time ([5]; Exp 2: excipients and Compound 1 15 mg/mL at 25° C., single vessel)?
The Dissolution time was >6.5 h (estimated at.

And the “Dissolution time (estimated)” value ([5]; Exp 2: excipients and Compound 1 15 mg/mL at 25° C., single vessel, estimated)?
Its value is ~9.5 h.

What about the “Dissolution of Compound 1 in ethanol and t-butanol (organic dissolution)” value ([5]; Exp 3: 15 mg/mL, two vessels (separate aqueous and organic), 25° C. stepped up to 35° C.) of the same compound?
Its value is “remains as solid even at”.

What about the Dissolution time ([5]; Exp 3: 15 mg/mL, two vessels, after mixing aqueous and organic portions, held at the temperature of the organic phase) of the same compound?
The Dissolution time was 1.25 h.

And the Dissolution time ([5]; Exp 4: excipients and Compound 1 15 mg/mL at 30° C., single vessel)?
Its Dissolution time is “Dissolution time: 5 h”.

What about the Dissolution time ([5]; Exp 5: excipients and Compound 1 12.5 mg/mL at 30° C., single vessel) of the same compound?
The Dissolution time was 3.66 h.

And the Dissolution time ([5]; Exp 6: excipients and Compound 1 10 mg/mL at 30° C., single vessel)?
The Dissolution time was 1.75 h.
